Test results taken from US9062124B2, “GIP-based mixed agonists for treatment of metabolic disorders and obesity” (priority 2008, dated 2015).
Where a SMILES comes first, the peptide text is derived from it. Bridges are numbered along the chain shown (N, C = ends).

Assays:
Assay type in all cases: cell-based
glucagon receptor = molecular target: T1, glucagon receptor (Homo sapiens, UniProt P47871); test: cAMP synthesis functional assay (firefly luciferase reporter in HEK293 cells), glucagon receptor; conditions: Table 1; relative to the native hormone of the indicated receptor
T1 construct: expressed in transfected cells; host or cells: HEK293

GLP-1 receptor = molecular target: T2, GLP-1 receptor (Homo sapiens, UniProt P43220); test: cAMP synthesis functional assay (firefly luciferase reporter in HEK293 cells), GLP-1 receptor; conditions: Table 1; for GLP-1 Receptor relative activity: relative to the native hormone of the indicated receptor; for EC50: GLP-1 Receptor EC50, nM
T2 construct: expressed in transfected cells; host or cells: HEK293

GIP receptor = molecular target: T3, GIP receptor (Homo sapiens, UniProt P48546); test: cAMP synthesis functional assay (firefly luciferase reporter in HEK293 cells), GIP receptor; conditions: Table 1; relative to the native hormone of the indicated receptor
T3 construct: expressed in transfected cells; host or cells: HEK293
T3 sequence (P48546 22-466): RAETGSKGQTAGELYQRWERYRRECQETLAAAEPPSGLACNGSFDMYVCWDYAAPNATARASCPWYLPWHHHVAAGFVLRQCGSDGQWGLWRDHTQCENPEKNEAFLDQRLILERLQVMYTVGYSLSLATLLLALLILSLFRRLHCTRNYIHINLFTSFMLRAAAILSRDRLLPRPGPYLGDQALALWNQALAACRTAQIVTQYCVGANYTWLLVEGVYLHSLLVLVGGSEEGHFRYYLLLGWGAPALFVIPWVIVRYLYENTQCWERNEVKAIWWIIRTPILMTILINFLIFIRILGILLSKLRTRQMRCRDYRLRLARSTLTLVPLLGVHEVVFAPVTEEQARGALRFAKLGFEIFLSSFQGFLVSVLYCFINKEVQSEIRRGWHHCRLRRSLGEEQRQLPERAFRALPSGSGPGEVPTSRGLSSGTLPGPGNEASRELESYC

T1 sequence (P47871 26-477): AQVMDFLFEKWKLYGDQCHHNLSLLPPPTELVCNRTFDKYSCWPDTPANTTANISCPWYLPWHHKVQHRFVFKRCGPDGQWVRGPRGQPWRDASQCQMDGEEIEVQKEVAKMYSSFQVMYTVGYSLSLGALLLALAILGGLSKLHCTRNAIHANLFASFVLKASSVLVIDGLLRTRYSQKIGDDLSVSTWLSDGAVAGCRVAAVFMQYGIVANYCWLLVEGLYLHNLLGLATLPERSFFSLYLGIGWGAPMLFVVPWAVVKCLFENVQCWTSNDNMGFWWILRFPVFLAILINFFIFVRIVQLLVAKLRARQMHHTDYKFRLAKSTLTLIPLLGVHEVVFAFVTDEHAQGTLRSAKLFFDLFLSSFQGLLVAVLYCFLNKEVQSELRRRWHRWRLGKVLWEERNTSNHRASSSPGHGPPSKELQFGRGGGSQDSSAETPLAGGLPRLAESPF
T2 sequence (P43220 24-463, species assumed): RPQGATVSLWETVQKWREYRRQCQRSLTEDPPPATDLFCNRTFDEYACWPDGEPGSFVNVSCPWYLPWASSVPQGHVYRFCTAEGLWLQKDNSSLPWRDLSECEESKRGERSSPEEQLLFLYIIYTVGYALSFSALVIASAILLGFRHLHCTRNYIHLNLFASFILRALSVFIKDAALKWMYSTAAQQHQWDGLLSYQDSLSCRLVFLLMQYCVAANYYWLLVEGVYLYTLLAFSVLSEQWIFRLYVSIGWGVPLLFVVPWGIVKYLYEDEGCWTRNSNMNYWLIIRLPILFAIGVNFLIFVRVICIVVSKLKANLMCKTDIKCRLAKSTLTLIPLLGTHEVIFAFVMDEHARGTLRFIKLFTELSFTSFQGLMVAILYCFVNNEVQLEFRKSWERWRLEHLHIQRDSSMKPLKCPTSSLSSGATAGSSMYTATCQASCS

| Structure (SMILES) | Glucagon Receptor relative activity (glucagon receptor) | GLP-1 Receptor relative activity (GLP-1 receptor) | GIP Receptor relative activity (GIP receptor) | EC50 (GLP-1 receptor) |
| --- | --- | --- | --- | --- |
| CC[C@H](C)[C@H](NC(=O)[C@H](CO)NC(=O)[C@H](Cc1ccc(O)cc1)NC(=O)[C@H](CC(=O)O)NC(=O)[C@H](CO)NC(=O)[C@@H](NC(=O)[C@H](Cc1ccccc1)NC(=O)[C@@H](NC(=O)CNC(=O)[C@H](CCC(N)=O)NC(=O)[C@H](CO)NC(=O)[C@@H](N)Cc1ccc(O)cc1)[C@@H](C)O)[C@@H](C)O)C(=O)N[C@@H](Cc1ccc(O)cc1)C(=O)N[C@@H](CC(C)C)C(=O)N[C@@H](CC(=O)O)C(=O)N[C@H]1CCC(=O)NCCCC[C@@H](C(=O)N[C@@H](CC(=O)O)C(=O)N[C@@H](Cc2ccccc2)C(=O)N[C@H](C(=O)N[C@@H](CC(N)=O)C(=O)N[C@@H](Cc2c[nH]c3ccccc23)C(=O)N[C@@H](CC(C)C)C(=O)N[C@@H](CC(C)C)C(=O)N[C@@H](C)C(=O)N[C@@H](CCC(N)=O)C(N)=O)C(C)C)NC(=O)[C@H](CCC(N)=O)NC(=O)[C@H](Cc2c[nH]cn2)NC(=O)[C@H]([C@@H](C)CC)NC1=O [mt-110] (H-YSQGTFTSDYSIYLDEIHQKDFVNWLLAQ-NH2; lactam 16-20; N-terminus assumed) | 23.26% | 1.49% | 9.62% | – |
| CC[C@H](C)[C@@H]1NC(=O)[C@@H](NC(=O)[C@H](CC(=O)O)NC(=O)[C@H](CC(C)C)NC(=O)[C@H](Cc2ccc(O)cc2)NC(=O)[C@H](CCCCN)NC(=O)[C@H](CO)NC(=O)[C@H](Cc2ccc(O)cc2)NC(=O)[C@H](CC(=O)O)NC(=O)[C@H](CO)NC(=O)[C@@H](NC(=O)[C@H](Cc2ccccc2)NC(=O)[C@@H](NC(=O)CNC(=O)[C@H](CCC(N)=O)NC(=O)[C@H](CO)NC(=O)[C@@H](N)Cc2c[nH]cn2)[C@@H](C)O)[C@@H](C)O)CCC(=O)NCCCC[C@@H](C(=O)N[C@@H](CC(=O)O)C(=O)N[C@@H](Cc2ccccc2)C(=O)N[C@H](C(=O)N[C@@H](CC(N)=O)C(=O)N[C@@H](Cc2c[nH]c3ccccc23)C(=O)N[C@@H](CC(C)C)C(=O)N[C@@H](CC(C)C)C(=O)N[C@@H](C)C(=O)N[C@@H](CCC(N)=O)C(N)=O)C(C)C)NC(=O)[C@H](CCC(N)=O)NC(=O)[C@H](Cc2c[nH]cn2)NC1=O [mt-111] (H-HSQGTFTSDYSKYLDEIHQKDFVNWLLAQ-NH2; lactam 16-20; N-terminus assumed) | 85.19% | 10.61% | 0.78% | 0.66 nM |
| CC[C@H](C)[C@@H]1NC(=O)[C@@H](NC(=O)[C@H](CC(=O)O)NC(=O)[C@H](CC(C)C)NC(=O)[C@H](Cc2ccc(O)cc2)NC(=O)[C@H](CCCCN)NC(=O)[C@H](CO)NC(=O)[C@H](Cc2ccc(O)cc2)NC(=O)[C@H](CC(=O)O)NC(=O)[C@H](CO)NC(=O)[C@@H](NC(=O)[C@H](Cc2ccccc2)NC(=O)[C@@H](NC(=O)CNC(=O)[C@H](CCC(N)=O)NC(=O)[C@H](CO)NC(=O)[C@@H](N)Cc2c[nH]cn2)[C@@H](C)O)[C@@H](C)O)CCC(=O)NCCCC[C@@H](C(=O)N[C@@H](CC(=O)O)C(=O)N[C@@H](Cc2ccccc2)C(=O)N[C@H](C(=O)N[C@@H](CC(N)=O)C(=O)N[C@@H](Cc2c[nH]c3ccccc23)C(=O)N[C@@H](CC(C)C)C(=O)N[C@@H](CC(C)C)C(=O)N[C@@H](C)C(=O)NCC(=O)NCC(=O)N2CCC[C@H]2C(=O)N[C@@H](CO)C(=O)N[C@@H](CO)C(=O)NCC(=O)N[C@@H](C)C(=O)N2CCC[C@H]2C(=O)N2CCC[C@H]2C(=O)N2CCC[C@H]2C(=O)N[C@@H](CO)C(N)=O)C(C)C)NC(=O)[C@H](CCC(N)=O)NC(=O)[C@H](Cc2c[nH]cn2)NC1=O [mt-115] (H-HSQGTFTSDYSKYLDEIHQKDFVNWLLAGGPSSGAPPPS-NH2; lactam 16-20; N-terminus assumed) | 11.36% | 20.00% | 1.31% | – |
| CC[C@H](C)[C@@H]1NC(=O)[C@@H](NC(=O)[C@H](CC(=O)O)NC(=O)[C@H](CC(C)C)NC(=O)[C@H](Cc2ccc(O)cc2)NC(=O)[C@H](CCCCN)NC(=O)[C@H](CO)NC(=O)[C@H](Cc2ccc(O)cc2)NC(=O)[C@H](CC(=O)O)NC(=O)[C@H](CO)NC(=O)[C@@H](NC(=O)[C@H](Cc2ccccc2)NC(=O)[C@@H](NC(=O)CNC(=O)[C@H](CCC(N)=O)NC(=O)[C@H](CO)NC(=O)[C@@H](N)Cc2ccc(O)cc2)[C@@H](C)O)[C@@H](C)O)CCC(=O)NCCCC[C@@H](C(=O)N[C@@H](CCC(=O)O)C(=O)N[C@@H](Cc2ccccc2)C(=O)N[C@H](C(=O)N[C@@H](CC(N)=O)C(=O)N[C@@H](Cc2c[nH]c3ccccc23)C(=O)N[C@@H](CC(C)C)C(=O)N[C@@H](CC(C)C)C(=O)N[C@@H](C)C(=O)N[C@@H](CCC(N)=O)C(N)=O)C(C)C)NC(=O)[C@H](CCC(N)=O)NC(=O)[C@H](Cc2c[nH]cn2)NC1=O [mt-118] (H-YSQGTFTSDYSKYLDEIHQKEFVNWLLAQ-NH2; lactam 16-20; N-terminus assumed) | 125.00% | 2.34% | 6.39% | – |
| CC[C@H](C)[C@H](NC(=O)[C@H](Cc1ccccc1)NC(=O)[C@H](CCC(=O)O)NC(=O)[C@@H]1CCCCNC(=O)CC[C@H](NC(=O)[C@H](CC(=O)O)NC(=O)[C@H](CC(C)C)NC(=O)[C@H](Cc2ccc(O)cc2)NC(=O)[C@H](CCCCN)NC(=O)[C@H](CO)NC(=O)[C@H](Cc2ccc(O)cc2)NC(=O)[C@H](CC(=O)O)NC(=O)[C@H](CO)NC(=O)[C@@H](NC(=O)[C@H](Cc2ccccc2)NC(=O)[C@@H](NC(=O)CNC(=O)[C@H](CCC(N)=O)NC(=O)[C@H](CO)NC(=O)[C@@H](N)Cc2ccc(O)cc2)[C@@H](C)O)[C@@H](C)O)C(=O)N[C@@H](CCC(N)=O)C(=O)N[C@@H](C)C(=O)N[C@@H](C)C(=O)N1)C(=O)N[C@@H](C)C(=O)N[C@@H](Cc1c[nH]c2ccccc12)C(=O)N[C@@H](CC(C)C)C(=O)N[C@@H](CCSC)C(=O)N[C@@H](CC(N)=O)C(=O)NCC(=O)NCC(=O)N1CCC[C@H]1C(=O)N[C@@H](CO)C(=O)N[C@@H](CO)C(=O)NCC(=O)N[C@@H](C)C(=O)N1CCC[C@H]1C(=O)N1CCC[C@H]1C(=O)N1CCC[C@H]1C(=O)N[C@@H](CO)C(N)=O [mt-120] (H-YSQGTFTSDYSKYLDEQAAKEFIAWLMNGGPSSGAPPPS-NH2; lactam 16-20; N-terminus assumed) | 259.46% | 13.45% | 1.81% | – |
| CC[C@H](C)[C@H](NC(=O)[C@H](CO)NC(=O)[C@H](Cc1ccc(O)cc1)NC(=O)[C@H](CC(=O)O)NC(=O)[C@H](CO)NC(=O)[C@@H](NC(=O)[C@H](Cc1ccccc1)NC(=O)[C@@H](NC(=O)CNC(=O)[C@H](CCC(N)=O)NC(=O)[C@H](CO)NC(=O)[C@@H](N)Cc1c[nH]cn1)[C@@H](C)O)[C@@H](C)O)C(=O)N[C@@H](Cc1ccc(O)cc1)C(=O)N[C@@H](CCSC)C(=O)N[C@@H](CC(=O)O)C(=O)N[C@H]1CCC(=O)NCCCC[C@@H](C(=O)N[C@@H](CC(=O)O)C(=O)N[C@@H](Cc2ccccc2)C(=O)N[C@H](C(=O)N[C@@H](CC(N)=O)C(=O)N[C@@H](Cc2c[nH]c3ccccc23)C(=O)N[C@@H](CC(C)C)C(=O)N[C@@H](CC(C)C)C(=O)N[C@@H](C)C(=O)N[C@@H](CCC(N)=O)C(N)=O)C(C)C)NC(=O)[C@H](CCC(N)=O)NC(=O)[C@H](Cc2c[nH]cn2)NC(=O)[C@H]([C@@H](C)CC)NC1=O [mt-124] (H-HSQGTFTSDYSIYMDEIHQKDFVNWLLAQ-NH2; lactam 16-20; N-terminus assumed) | 8.64% | 100.00% | 0.95% | 0.04 nM |
| CC[C@H](C)[C@H](NC(=O)[C@H](CO)NC(=O)[C@H](Cc1ccc(O)cc1)NC(=O)[C@H](CC(=O)O)NC(=O)[C@H](CO)NC(=O)[C@@H](NC(=O)[C@H](Cc1ccccc1)NC(=O)[C@@H](NC(=O)CNC(=O)[C@H](CCC(N)=O)NC(=O)[C@H](CO)NC(=O)[C@@H](N)Cc1ccc(O)cc1)[C@@H](C)O)[C@@H](C)O)C(=O)N[C@@H](Cc1ccc(O)cc1)C(=O)N[C@@H](CCSC)C(=O)N[C@@H](CC(=O)O)C(=O)N[C@H]1CCC(=O)NCCCC[C@@H](C(=O)N[C@@H](CC(=O)O)C(=O)N[C@@H](Cc2ccccc2)C(=O)N[C@H](C(=O)N[C@@H](CC(N)=O)C(=O)N[C@@H](Cc2c[nH]c3ccccc23)C(=O)N[C@@H](CC(C)C)C(=O)N[C@@H](CC(C)C)C(=O)N[C@@H](C)C(=O)N[C@@H](CCC(N)=O)C(N)=O)C(C)C)NC(=O)[C@H](CCC(N)=O)NC(=O)[C@H](Cc2c[nH]cn2)NC(=O)[C@H]([C@@H](C)CC)NC1=O [mt-125] (H-YSQGTFTSDYSIYMDEIHQKDFVNWLLAQ-NH2; lactam 16-20; N-terminus assumed) | 9.06% | 3.17% | 19.64% | – |
